Results taken from patent US20250136606A1, “MODULATORS OF TRPML, THEIR COMPOSITIONS AND METHODS OF USE” (Caraway Therapeutics, Inc., priority 2021, published 2025).
pEC50: −log10 of the molar value. Like-named read-outs stand apart in the source and are kept apart here.

Columns and labels:
Assay type in all cases: cell-based
TRPML2 = target: T1, TRPML2 (Homo sapiens, UniProt Q8IZK6); assay: Fluorescent TRPML2 assay (performed as for TRPML1, substituting the TRPML2 subtype)
T1 construct: expressed in transfected cells
T1 sequence (Q8IZK6 1-566): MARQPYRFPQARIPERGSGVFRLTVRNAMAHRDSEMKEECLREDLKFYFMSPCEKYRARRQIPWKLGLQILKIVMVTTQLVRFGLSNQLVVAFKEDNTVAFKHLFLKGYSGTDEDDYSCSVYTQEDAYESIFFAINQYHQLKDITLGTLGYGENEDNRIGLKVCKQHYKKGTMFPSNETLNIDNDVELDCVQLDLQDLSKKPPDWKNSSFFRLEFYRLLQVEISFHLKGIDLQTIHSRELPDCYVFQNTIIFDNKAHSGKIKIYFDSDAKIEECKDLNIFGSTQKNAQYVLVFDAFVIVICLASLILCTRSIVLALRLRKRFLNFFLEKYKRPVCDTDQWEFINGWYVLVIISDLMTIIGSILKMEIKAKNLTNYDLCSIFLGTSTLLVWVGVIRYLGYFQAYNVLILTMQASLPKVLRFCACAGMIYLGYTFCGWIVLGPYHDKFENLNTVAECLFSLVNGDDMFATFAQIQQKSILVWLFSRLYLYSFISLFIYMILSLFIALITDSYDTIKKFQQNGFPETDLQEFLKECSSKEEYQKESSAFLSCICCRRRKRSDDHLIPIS
Description: HEK-293 Trex cells were stably transfected with a construct consisting of the human coding sequence for TRPML1 cloned into the […] plasmid pCDNA5 T/O. Mutations were introduced into the TRPML1 sequence to facilitate expression on the cell surface (Silvia Vergarajauregui, Rosa Puertollano, Traffic. 2006 March; 7(3): 337-353). Briefly, the cells are cultured in 150 mm round tissue culture dishes containing 20 mL of media. The day before the assay the cells are rinsed with DPBS-Ca—Mg and then treated briefly with Trypsin-EDTA. The Trypsin-EDTA is diluted with growth media, and cells are counted. 38×10^6 cells are re-plated into 150 mm round tissue culture dishes in media containing 0.5 ug/mL doxycycline to induce expression of hTRPML1.
The day of the experiment cells are lifted from the plates as above and collected by centrifugation. The cells are then suspended in dye loading buffer consisting of Ringer's solution supplemented with 0.1% Pluronic Acid and 1 micromolar Fluo4-AM dye. Cells are loaded for ˜60 minutes in the dark with occasional mixing. The cells are collected by centrifugation, the loading media aspirated, and the cells resuspended in 25 mL Ringer's solution and incubated ˜60 minutes in the dark. The cells are again collected by centrifugation, rinsed in Ringer's Solution and resuspended to […] in modified Ringer's solution containing 10 mM calcium.
Compounds are dissolved to a concentration of 10 millimolar with DMSO. Compound plates are created by dispensing compounds into 384 well black wall clear bottom plates (Greiner 781091). Positive and negative controls are included on each plate. Typically, different amounts of each compound are tested ranging from 100 nanoMoles (20 micromolar final concentration) decreasing in half-log steps to 31 picoMoles (6 nanomolar final concentration). Each concentration is typically tested in triplicate.
50 microliters of dye-loaded cells are dispensed into each well of the compound assay plate created above. The fluorescence in each well is then determined with an excitation wavelength of 480 nm and an emission wavelength of 540 nm using either a Molecular Devices SpectraMax multimode plate reader or a Hamamatsu FDSS/uCell plate imager.
The resulting fluorescence for each well is exported as an ascii file and loaded into our LIMS for analysis. The percent activity of each compound at each concentration is determined by comparison to the positive and negative control wells included in each plate.
TRPML2 and TRPML3 Assays Assays for TRPML2 and TRPML3 were performed as above for TRPML1, by substituting the appropriate TRPML2 or TRPML3 subtype for the TRPML1.
EC50 values were calculated using a non-linear regression of Prism. In the table, “A” indicates an EC50 of less than 100 nM, “B” indicates an EC50 range from 100 nM to 500 nM; “C” indicates an EC50 range from 500 nM to 2 μM; and “D” indicates an EC50 greater than 2 μM.

TRPML3 = target: T2, TRPML3 (Homo sapiens, UniProt Q8TDD5); assay: Fluorescent TRPML3 assay (performed as for TRPML1, substituting the TRPML3 subtype)
T2 construct: expressed in transfected cells
T2 sequence (Q8TDD5 1-553): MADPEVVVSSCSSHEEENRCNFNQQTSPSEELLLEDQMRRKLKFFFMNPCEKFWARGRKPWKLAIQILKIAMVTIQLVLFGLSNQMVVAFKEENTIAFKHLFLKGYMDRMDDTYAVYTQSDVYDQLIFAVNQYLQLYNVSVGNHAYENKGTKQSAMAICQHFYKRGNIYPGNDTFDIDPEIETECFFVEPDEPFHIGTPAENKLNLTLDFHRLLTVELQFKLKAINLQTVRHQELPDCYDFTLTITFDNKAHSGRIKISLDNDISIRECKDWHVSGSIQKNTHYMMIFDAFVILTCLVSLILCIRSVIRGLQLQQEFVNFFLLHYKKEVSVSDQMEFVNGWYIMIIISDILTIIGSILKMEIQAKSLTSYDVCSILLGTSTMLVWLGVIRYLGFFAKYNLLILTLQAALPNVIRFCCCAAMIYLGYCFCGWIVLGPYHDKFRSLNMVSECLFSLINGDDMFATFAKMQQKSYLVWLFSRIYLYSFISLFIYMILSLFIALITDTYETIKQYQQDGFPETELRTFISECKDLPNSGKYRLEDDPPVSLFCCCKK
Summary of the method: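 HEK-293 Trex, dox-induced (0.5 ug/mL), mutated for surface expression. Fluo4-AM 1 micromolar load ~60 min, dark; buffer modified Ringer's, 10 mM Ca. Cpds 20 micromolar–6 nanomolar final, half-log, n=3. Read ex 480/em 540; % activity vs controls; EC50 nonlinear fit.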

TRPML1 = TRPML1 (Homo sapiens, UniProt Q9GZU1); assay: Fluorescent TRPML1 assay (Fluo4-AM calcium fluorescence in doxycycline-induced HEK-293 Trex cells)
Chain of TRPML1 (Q9GZU1 whole entry L15A/L16A/L577A/L578A, form open): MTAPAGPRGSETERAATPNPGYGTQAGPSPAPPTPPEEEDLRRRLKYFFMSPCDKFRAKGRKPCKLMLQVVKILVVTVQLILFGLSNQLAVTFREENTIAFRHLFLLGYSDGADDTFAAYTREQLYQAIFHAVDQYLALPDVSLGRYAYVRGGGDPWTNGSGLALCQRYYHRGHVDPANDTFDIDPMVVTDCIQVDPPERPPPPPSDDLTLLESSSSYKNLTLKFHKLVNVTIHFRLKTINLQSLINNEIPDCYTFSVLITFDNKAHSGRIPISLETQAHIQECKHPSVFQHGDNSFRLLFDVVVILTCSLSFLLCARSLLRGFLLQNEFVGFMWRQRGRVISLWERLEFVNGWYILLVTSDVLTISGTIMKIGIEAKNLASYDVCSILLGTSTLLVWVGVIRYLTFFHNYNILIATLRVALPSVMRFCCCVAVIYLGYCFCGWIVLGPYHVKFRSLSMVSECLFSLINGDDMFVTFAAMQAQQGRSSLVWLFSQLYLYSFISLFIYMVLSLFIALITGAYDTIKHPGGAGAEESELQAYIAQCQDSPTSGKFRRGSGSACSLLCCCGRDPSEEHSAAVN
Summary of the method: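 First, expression of surface-targeted mutant human TRPML1 is induced in HEK-293 Trex cells with 0.5 ug/mL doxycycline the day before. Next, cells take up 1 micromolar Fluo4-AM in Ringer's with 0.1% Pluronic. Finally, they are added to compounds (6 nanomolar–20 micromolar final) in 10 mM calcium Ringer's and fluorescence is read.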

Row | pEC50 (TRPML2) | pEC50 (TRPML3) | pEC50 (TRPML1) | pEC50 (TRPML2; fluorescent calcium assay) | pEC50 (TRPML3; fluorescent calcium assay) | pEC50 (TRPML1; fluorescent calcium assay) | Compound
1 | 6.30 to 7.00 | 6.30 to 7.00 | 6.30 to 7.00 | – | – | – | Cc1cn(-c2cc(F)ccn2)c2ncnc(N3CCN(C(=O)OC(C)(C)C)[C@H](C)C3)c12 [Compound 678, tert-butyl (R)-4-(7-(4-fluoropyridin-2-yl)-5-methyl-7H-pyrrolo[2,3-d]pyrimidin-4-yl)-2-methylpiperazine-1-carboxylate]
2 | 5.70 to 6.30 | 6.30 to 7.00 | 6.30 to 7.00 | – | – | – | COc1ccnc(-n2cc(C3CC3)c3c(N4C[C@@H](C)N(C(=O)OC(C)(C)C)C[C@@H]4C)ncnc32)c1 [Compound 642, tert-butyl (2R,5S)-4-(5-cyclopropyl-7-(4-methoxypyridin-2-yl)-7H-pyrrolo[2,3-d]pyrimidin-4-yl)-2,5-dimethylpiperazine-1-carboxylate]
3 | – | – | – | > 7.00 | > 7.00 | > 7.00 | C[C@H]1CN(C(=O)OC(C)(C)C)CCN1c1ncnc2c1c(-c1ccccn1)cn2-c1ccc(F)c(Cl)c1 [Compound 154, tert-butyl (S)-4-(7-(3-chloro-4-fluorophenyl)-5-(pyridin-2-yl)-7H-pyrrolo[2,3-d]pyrimidin-4-yl)-3-methylpiperazine-1-carboxylate]
4 | – | – | – | 5.70 to 6.30 | 5.70 to 6.30 | 5.70 to 6.30 | CCOC(=O)N1C[C@H](C)N(c2ncnc3c2c(-c2ccccc2F)cn3-c2cncc(OC)c2)C[C@H]1C [Compound 138, ethyl (2R,5S)-4-(5-(2-fluorophenyl)-7-(5-methoxypyridin-3-yl)-7H-pyrrolo[2,3-d]pyrimidin-4-yl)-2,5-dimethylpiperazine-1-carboxylate]
5 | 5.70 to 6.30 | > 7.00 | > 7.00 | – | – | – | C[C@@H]1CN(c2ncnc3c2c(C(F)(F)F)cn3-c2cccc(C#N)c2)[C@@H](C)CN1C(=O)OC(C)(C)C [Compound 513, tert-butyl (2R,5S)-4-(7-(3-cyanophenyl)-5-(trifluoromethyl)-7H-pyrrolo[2,3-d]pyrimidin-4-yl)-2,5-dimethylpiperazine-1-carboxylate]
6 | – | – | – | 5.70 to 6.30 | 6.30 to 7.00 | 6.30 to 7.00 | CCOC(=O)N1C[C@H](C)N(c2ncnc3c2c(-c2ccccc2F)cn3-c2ccccn2)C[C@H]1C [Compound 137, ethyl (2R,5S)-4-(5-(2-fluorophenyl)-7-(pyridin-2-yl)-7H-pyrrolo[2,3-d]pyrimidin-4-yl)-2,5-dimethylpiperazine-1-carboxylate]
7 | – | – | – | 5.70 to 6.30 | 6.30 to 7.00 | > 7.00 | C[C@@H]1CN(c2ncnc3c2c(-c2cnccn2)cn3-c2cccc(Cl)c2)[C@@H](C)CN1C(=O)OC(C)(C)C [Compound 124, tert-butyl (2R,5S)-4-(7-(3-chlorophenyl)-5-(pyrazin-2-yl)-7H-pyrrolo[2,3-d]pyrimidin-4-yl)-2,5-dimethylpiperazine-1-carboxylate]
8 | – | – | – | > 7.00 | > 7.00 | > 7.00 | Cc1cn(-c2cc(C#N)ccn2)c2ncnc(N3C[C@@H](C)N(C(=O)OC(C)(C)C)C[C@@H]3C)c12 [Compound 477, tert-butyl (2R,5S)-4-(7-(4-cyanopyridin-2-yl)-5-methyl-7H-pyrrolo[2,3-d]pyrimidin-4-yl)-2,5-dimethylpiperazine-1-carboxylate]
9 | – | – | – | > 7.00 | > 7.00 | > 7.00 | Cc1cc(C#N)cc(-n2cc(-c3ccccc3F)c3c(N4CCN(C(=O)OC(C)(C)C)C[C@@H]4C)ncnc32)n1 [Compound 404, tert-butyl (S)-4-(7-(4-cyano-6-methylpyridin-2-yl)-5-(2-fluorophenyl)-7H-pyrrolo[2,3-d]pyrimidin-4-yl)-3-methylpiperazine-1-carboxylate]
10 | – | – | – | > 7.00 | > 7.00 | > 7.00 | C[C@@H]1CN(c2ncnc3c2c(C(F)(F)F)cn3-c2cc(C#N)ccn2)[C@@H](C)CN1C(=O)OC(C)(C)C [Compound 483, tert-butyl (2R,5S)-4-(7-(4-cyanopyridin-2-yl)-5-(trifluoromethyl)-7H-pyrrolo[2,3-d]pyrimidin-4-yl)-2,5-dimethylpiperazine-1-carboxylate]
11 | – | – | – | 5.70 to 6.30 | 6.30 to 7.00 | 6.30 to 7.00 | C[C@@H]1CN(C(=O)OC(C)(C)C)CCN1c1ncnc2c1c(C1CCOCC1)cn2-c1cccc(F)c1 [Compound 469, tert-butyl (R)-4-(7-(3-fluorophenyl)-5-(tetrahydro-2H-pyran-4-yl)-7H-pyrrolo[2,3-d]pyrimidin-4-yl)-3-methylpiperazine-1-carboxylate]
12 | 5.70 to 6.30 | 5.70 to 6.30 | > 7.00 | – | – | – | Cc1cn(-c2cc(C(F)(F)F)ccn2)c2ccnc(N3C[C@@H](C)N(C(=O)OC(C)(C)C)C[C@@H]3C)c12 [Compound 702, tert-butyl (2R,5S)-2,5-dimethyl-4-(3-methyl-1-(4-(trifluoromethyl)pyridin-2-yl)-1H-pyrrolo[3,2-c]pyridin-4-yl)piperazine-1-carboxylate]
13 | – | – | – | > 7.00 | > 7.00 | > 7.00 | C[C@H]1CN(C(=O)OC(C)(C)C)CCN1c1ncnc2c1c(-c1ccncc1)cn2-c1cc(C#N)ccn1 [Compound 354, tert-butyl (S)-4-(7-(4-cyanopyridin-2-yl)-5-(pyridin-4-yl)-7H-pyrrolo[2,3-d]pyrimidin-4-yl)-3-methylpiperazine-1-carboxylate]
14 | – | – | – | 5.70 to 6.30 | 6.30 to 7.00 | 6.30 to 7.00 | C[C@H]1CN(C(=O)OC(C)(C)C)CCN1c1ncnc2c1c(-c1ccncc1)cn2-c1cc(F)cc(F)c1 [Compound 241, tert-butyl-(S)-4-(7-(3,5-difluorophenyl)-5-(pyridin-4-yl)-7H-pyrrolo[2,3-d]pyrimidin-4-yl)-3-methylpiperazine-1-carboxylate]
15 | – | – | – | 6.30 to 7.00 | > 7.00 | 5.70 to 6.30 | C[C@H]1CN(C(=O)OC(C)(C)C)CCN1c1ncnc2c1c(C1CC1)cn2-c1ccc(F)c(OC(F)(F)F)c1 [Compound 387, tert-butyl (S)-4-(5-cyclopropyl-7-(4-fluoro-3-(trifluoromethoxy)phenyl)-7H-pyrrolo[2,3-d]pyrimidin-4-yl)-3-methylpiperazine-1-carboxylate]
